In PubChem BioAssay AID330 (DTP/NCI, 2004) one finds T/C data, which are given here for 22 compounds.

Where “and” joins values, the source holds several entries; their conditions need not be identical. Identical values can stand only once. Inconclusive results and toxic doses are left out.

The test system of this experiment is P388 leukemia ip, CD2F1 mice, survival T/C. Kind of experiment: NCI In Vivo Anticancer Drug Screen. Data for tumor model P388 Leukemia (intraperitoneal) in CD2F1 (CDF1) mice. To be noted: endpoint: median survival time, higher = longer survival. An outline of the steps:
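Mice carrying the transplanted tumor received test compound or vehicle. Survival was recorded in each group, and the value is the treated-group measurement divided by that of the vehicle-treated control group.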

Setting [1] is: dose: 60.0 mg/kg/injection, schedule: Q01DX005 (ip), vehicle: Klucel (hydroxypropylcellulose) (HPC).
[2] abbreviates: dose: 120.0 mg/kg/injection, schedule: Q01DX005 (ip), vehicle: Klucel (hydroxypropylcellulose) (HPC).
Setting [3] is: dose: 240.0 mg/kg/injection, schedule: Q01DX005 (ip), vehicle: Klucel (hydroxypropylcellulose) (HPC).
Setting [4] is: dose: 50.0 mg/kg/injection, schedule: Q01DX005 (ip), vehicle: Klucel (hydroxypropylcellulose) (HPC).
Setting [5] is: dose: 100.0 mg/kg/injection, schedule: Q01DX005 (ip), vehicle: Klucel (hydroxypropylcellulose) (HPC).
[6] abbreviates: dose: 200.0 mg/kg/injection, schedule: Q01DX005 (ip), vehicle: Klucel (hydroxypropylcellulose) (HPC).
[7] abbreviates: dose: 50.0 mg/kg/injection, schedule: Q01DX005 (ip), vehicle: saline with Tween-80.
Where [8] appears, read: dose: 100.0 mg/kg/injection, schedule: Q01DX005 (ip), vehicle: saline with Tween-80.
The mark [9] stands for this setting: dose: 200.0 mg/kg/injection, schedule: Q01DX005 (ip), vehicle: saline with Tween-80.

Turning to `Nc1ccc(N(CCCl)CCN(CCCl)c2ccc(N)cc2)cc1`, the T/C (dose: 0.8 mg/kg/injection, schedule: Q01DX009 (ip), vehicle: saline sonified) was 176 % of control; the T/C (dose: 1.2 mg/kg/injection, schedule: Q01DX009 (ip), vehicle: saline sonified) is 209 % of control; the T/C (dose: 1.25 mg/kg/injection, schedule: Q01DX009 (ip), vehicle: saline) is 177 % of control; the T/C (dose: 2.5 mg/kg/injection, schedule: Q01DX009 (ip), vehicle: saline) was 122 % of control; the T/C (dose: 5.0 mg/kg/injection, schedule: Q01DX009 (ip), vehicle: saline) was 90 % of control; the T/C (dose: 5.0 mg/kg/injection, schedule: Q04DX003 (ip), vehicle: saline with Tween-80) is 118 % of control.
For the compound `O=C(Nc1ccc(NC(=O)Nc2cc(C(F)(F)F)ccc2Oc2ccc(Cl)c(Cl)c2)cc1)Nc1cc(C(F)(F)F)ccc1Oc1ccc(Cl)c(Cl)c1`, the T/C by setting is: under setting [1], 91 % of control; under setting [2], 98 % of control; under setting [3], 94 % of control.
Consider `Cc1c2cnccc2c(C)c2c1[nH]c1ccccc12`, for which the T/C reads like this: (dose: 25.0 mg/kg/injection, schedule: Q04DX002 (ip), vehicle: Klucel (hydroxypropylcellulose) (HPC)) 98 % of control; (dose: 50.0 mg/kg/injection, schedule: Q04DX002 (ip), vehicle: Klucel (hydroxypropylcellulose) (HPC)) 103 % of control; (dose: 100.0 mg/kg/injection, schedule: Q04DX002 (ip), vehicle: Klucel (hydroxypropylcellulose) (HPC)) 105 % of control; (dose: 180.0 mg/kg/injection, schedule: Q04DX002 (ip), vehicle: Klucel (hydroxypropylcellulose) (HPC)) 94 % of control; (dose: 200.0 mg/kg/injection, schedule: Q04DX002 (ip), vehicle: Klucel (hydroxypropylcellulose) (HPC)) 111 % of control; (dose: 360.0 mg/kg/injection, schedule: Q04DX002 (ip), vehicle: Klucel (hydroxypropylcellulose) (HPC)) 108 % of control.
With `CCN(CC)Cc1cc(N=Nc2c(O)ccc3c(N=Nc4ccc(O)c(CN(CC)CC)c4)c(O)ccc23)ccc1O`, the T/C under setting [4] was 108 % of control and the T/C under setting [5] was 109 % of control.
Consider `O=S(=O)(O)c1cncc(S(=O)(=O)O)n1`, for which the T/C runs as follows: (dose: 100.0 mg/kg/injection, schedule: Q01DX009 (ip), vehicle: saline) 110 % of control; (dose: 100.0 mg/kg/injection, schedule: Q04DX003 (ip), vehicle: saline) 100 % of control; (dose: 200.0 mg/kg/injection, schedule: Q01DX009 (ip), vehicle: saline) 105 % of control; (dose: 200.0 mg/kg/injection, schedule: Q04DX003 (ip), vehicle: saline) 104 % of control; (dose: 400.0 mg/kg/injection, schedule: Q01DX009 (ip), vehicle: saline) 100 % of control; (dose: 400.0 mg/kg/injection, schedule: Q04DX003 (ip), vehicle: saline) 100 % of control.
With `O=P1(NNc2ncccn2)SC(NN=C2CCCCC2)=NC12CCCCC2` (configuration not stated), the T/C by setting is: (dose: 7.5 mg/kg/injection, schedule: Q01DX005 (ip), vehicle: Klucel (hydroxypropylcellulose) (HPC)) 100 % of control; (dose: 15.0 mg/kg/injection, schedule: Q01DX005 (ip), vehicle: Klucel (hydroxypropylcellulose) (HPC)) 95 % of control; (dose: 30.0 mg/kg/injection, schedule: Q01DX005 (ip), vehicle: Klucel (hydroxypropylcellulose) (HPC)) 95 % of control; under setting [1], 100 % of control.
For the compound `Cc1cc(Nc2ccc(N(C)C)cc2)c2cc(N(C)C)ccc2n1`, the T/C (dose: 50.0 mg/kg/injection, schedule: Q01DX009 (ip), vehicle: saline with Tween-80) was 96 % of control and the T/C (dose: 100.0 mg/kg/injection, schedule: Q01DX009 (ip), vehicle: saline with Tween-80) is 107 % of control.
As for `CC1=Nc2ccccc2C(=O)NN1`, the T/C by setting is: (dose: 100.0 mg/kg/injection, schedule: Q04DX002 (ip), vehicle: saline with Tween-80) 101 % of control; (dose: 200.0 mg/kg/injection, schedule: Q04DX002 (ip), vehicle: saline with Tween-80) 101 % of control; (dose: 400.0 mg/kg/injection, schedule: Q04DX002 (ip), vehicle: saline with Tween-80) 102 % of control.
Turning to `CN(C)C1(C)CCC2C3CCC4=CC(=O)CCC4(C)C3CCC21C` (configuration not stated), the T/C was 97 % of control under setting [4], 97 % of control under setting [5] and 100 % of control under setting [6].
`O=C(N1C2c3ccsc3[C@@H](O)C21)C(F)(F)F` (some centres not stated): the T/C was 88 % of control under setting [7], 95 % of control under setting [8] and 100 % of control under setting [9].
Taken in the same sequence, the figures for `Fc1ccc(-c2nc3ccccn3c2N=Nc2ccccc2)cc1` were 88 % of control, 97 % of control and 94 % of control.
Turning to `O=C1c2ccccc2C2CNC1(O)c1ccccc12` (configuration not stated), the T/C under setting [7] was 97 % of control, the T/C under setting [8] is 97 % of control and the T/C under setting [9] was 102 % of control.
`CCOc1ccc(S(=O)(=O)c2ccc(C)cc2)c2c1no[n+]2[O-]`: the T/C (dose: 3.75 mg/kg/injection, schedule: Q01DX009 (ip), vehicle: saline with Tween-80) was 101 % of control; the T/C (dose: 7.5 mg/kg/injection, schedule: Q01DX009 (ip), vehicle: saline with Tween-80) was 99 % of control and 95 % of control; the T/C (dose: 15.0 mg/kg/injection, schedule: Q01DX009 (ip), vehicle: saline with Tween-80) is 107 % of control.
As to `COC(=O)C(NC(=O)C(Cc1c[nH]c2ccccc12)NC(=O)OC(C)(C)C)C(C)C` (configuration not stated), the T/C (dose: 12.5 mg/kg/injection, schedule: Q01DX009 (ip), vehicle: other) is 96 % of control; the T/C (dose: 25.0 mg/kg/injection, schedule: Q01DX009 (ip), vehicle: other) is 90 % of control; the T/C (dose: 50.0 mg/kg/injection, schedule: Q01DX009 (ip), vehicle: other) was 91 % of control; the T/C (dose: 100.0 mg/kg/injection, schedule: Q01DX009 (ip), vehicle: other) was 109 % of control; the T/C (dose: 200.0 mg/kg/injection, schedule: Q01DX009 (ip), vehicle: other) is 114 % of control.
Turning to `CCn1c2ccc(C(=O)CCCN(C)C)cc2c2cc(C(=O)CCCN(C)C)ccc21`, the T/C (dose: 12.5 mg/kg/injection, schedule: Q01DX009 (ip), vehicle: saline) was 118 % of control and 122 % of control; the T/C (dose: 25.0 mg/kg/injection, schedule: Q01DX009 (ip), vehicle: saline) is 108 % of control and 116 % of control.
In the case of `O=C1C=C(C2OC(CI)C(O)C2O)C(=O)N1` (configuration not stated), the T/C runs as follows: (dose: 1.56 mg/kg/injection, schedule: Q01DX009 (ip), vehicle: water) 113 % of control; (dose: 3.13 mg/kg/injection, schedule: Q01DX009 (ip), vehicle: water) 112 % of control; (dose: 6.25 mg/kg/injection, schedule: Q01DX009 (ip), vehicle: water) 118 % of control; (dose: 12.5 mg/kg/injection, schedule: Q01DX009 (ip), vehicle: water) 109 % of control; (dose: 25.0 mg/kg/injection, schedule: Q01DX009 (ip), vehicle: water) 118 % of control.
Consider `COC(=O)c1cc(=O)nc(NN)s1`, for which the T/C is, setting by setting: under setting [7], 92 % of control; under setting [8], 90 % of control.
Consider `C/C=C/C(=O)OC(C)CCC(CC)CCCC` (configuration not stated), for which the T/C was 100 % of control (dose: 100.0 mg/kg/injection, schedule: Q01DX009 (ip), vehicle: Klucel (hydroxypropylcellulose) (HPC)); 96 % of control (dose: 200.0 mg/kg/injection, schedule: Q01DX009 (ip), vehicle: Klucel (hydroxypropylcellulose) (HPC)); 91 % of control (dose: 400.0 mg/kg/injection, schedule: Q01DX009 (ip), vehicle: Klucel (hydroxypropylcellulose) (HPC)).
In the case of `Cc1cc2c(cc1C)NC1=C(N2)OC(c2c3ccccc3cc3ccccc23)C1=O` (configuration not stated), the T/C under setting [1] is 92 % of control, the T/C under setting [2] was 88 % of control and the T/C under setting [3] was 90 % of control.
Turning to `COC1=CC(=C(c2ccc(O)c(OC)c2)c2ccc(O)c(OC)c2)C=CC1=O`, the T/C under setting [7] was 117 % of control, the T/C under setting [8] was 119 % of control and the T/C under setting [9] is 115 % of control.
On to `N#Cc1c(O)c(-c2ccccc2)c(=O)n2c1[nH]c1ccccc12`, for which the T/C runs as follows: under setting [4], 101 % of control; under setting [5], 104 % of control; under setting [6], 113 % of control.
Turning to `CC(C)[C@](O)(C(=O)OC1CCN2CCC(CO)C12)[C@H](C)O` (some centres not stated), the T/C (dose: 11.5 mg/kg/injection, schedule: Q01DX009 (ip), vehicle: saline) was 111 % of control; the T/C (dose: 23.0 mg/kg/injection, schedule: Q01DX009 (ip), vehicle: saline) is 107 % of control; the T/C (dose: 46.0 mg/kg/injection, schedule: Q01DX009 (ip), vehicle: saline) is 105 % of control; the T/C (dose: 92.0 mg/kg/injection, schedule: Q01DX009 (ip), vehicle: saline) is 98 % of control.
